Results from patent US9920058B2, “Molecules with potent DHFR binding affinity and antibacterial activity” (Georgia Tech Research Corporation, priority 2013, dated 2018).
Converted amounts (≈) assume the structure as drawn. Where two headings read alike, the source gives them in different places.

Assays:
[1] = tested on: amphotericin-resistant Candida albicans (ARCA); test: Antifungal growth inhibition (MIC), ARCA; assay type: cell-based; conditions: for MIC: read-out: ARCA (MIC)
[2] = tested on: colon carcinoma cells HCT-116; test: Cytotoxicity assay on HCT-116; assay type: cell-based; conditions: for IC50: Homo sapiens, HCT-116
[3] = tested on: vancomycin-resistant E. faecium (ATCC700221) (VREF); test: Antimicrobial growth inhibition (MIC), VREF
[4] = target: dihydrofolate reductase (DHFR) from Escherichia coli (Escherichia coli, UniProt P0ABQ4); test: biochemical; assay type: binding; conditions: for ΔTm: unit given in Table 4
Procedure: The thermal shift assay was performed in a control reaction mix containing 100 mM HEPES pH 7.3, 150 mM NaCl, 5× Sypro-orange (an extrinsic fluorophore reporter from Invitrogen), 10 micromolar of the protein dihydrofolate reductase in 20 μl reaction mix. The test reaction contained 1 mM of the said compound apart from all the other constituents as mentioned above. Protein melting curves were obtained from samples aliquoted in 96-well plates using a RealPlex quantitative PCR from Eppendorf. […] A heating ramp of 1 degree Celsius/min was used from 25 degree Celsius to 74 degree Celsius and one data point was acquired for each degree increment. Appropriate dye controls and protein controls were incorporated. All the experiments were done with minimum two replicates and the mean value of the replicate Y was considered for further analysis.
Protein melting curves were obtained from samples aliquoted in 96-well plates using a RealPlex quantitative PCR instrument from Eppendorf (Eppendorf, N.Y., USA), with Sypro orange dye from Invitrogen as the fluorescent probe. A uniform final concentration of 5× (supplied as a 5000× stock solution) was used in all experiments. […] A heating ramp of 1° C./min from 25° C. to 74° C. was used, and one data point acquired for each degree increment. For standardization, different buffers and pH were checked. Thereafter, 100 mM HEPES pH 7.3 and 150 mM NaCl were used in all unfolding experiments. The volume of each reaction was 20 μl, and appropriate dye and protein controls were included. All experiments were done with a minimum of two replicates, with the mean value considered for further analysis. […] An additional control to rule out drug-dye interaction was carried out with all the constituents kept constant except for the protein of interest. The protein/protein-drug curves were reported after subtracting the respective dye alone/drug-dye curves.
Each melting curve was assigned a quality score (Q), the ratio of the melting-associated increase in fluorescence (ΔFmelt) to the total fluorescence range (ΔFtotal). […] Though an arbitrary Q value cutoff was not applied to judge curve quality, the curves were manually curated with Q values reported.
Subsequent to standardization, the validity of the top 1% of […]^comb's predictions on the test set of eight diverse proteins was examined. To be conservative, we focused only on those protein/ligand pairs showing single sigmoidal thermal transition curves. The fit to Boltzmann's equation (Eq. 1) was employed to estimate the melting temperature from the observed intensity, I.
[formula] Imin and Imax are the minimum and maximum intensities; a denotes the slope of the curve at the transition midpoint temperate, Tm. To estimate thermodynamic parameters, both van't Hoff and Gibbs-Helmholtz analyses were done.
[formula] KL(Tm) is the ligand association constant and [L] is the free ligand concentration at Tm([LTm]˜[L]total, when [L]total>>the total concentration of protein. KD is the inverse of KL(Tm).

[5] = tested on: methicillin-resistant S. aureus (ATCC 33591) (MRSA); test: Antimicrobial growth inhibition (MIC), MRSA
E. coli DH5α = test: Antimicrobial growth inhibition (MIC), E. coli DH5α; conditions: Escherichia coli
[6] = tested on: multi-drug resistant E. coli SMS-3-4 (ATCC BAA-1743) (MDREC); test: Antimicrobial growth inhibition (MIC), MDREC; conditions: Escherichia coli
[7] = tested on: several cancer cell lines including melanoma, prostrate, colon, and breast; conditions: cited from earlier work
[8] = Table 6, ND: No significant inhibition, read-out: HCT-116 (IC-50), inhibitory concentration for 50% growth inhibition
[9] = Enterococcus faecium, ATCC700221, read-out: VREF (MIC), minimum inhibitory concentration required for 90% clearance
[10] = Table 5, computed from the thermal shifts obtained, read-out: KD (Approx)
[11] = Candida albicans, Table 5, unit from Table 1, ND: non determinable/no significant inhibition
[12] = Table 5, unit from Table 6, ND: non determinable/no significant inhibition
[13] = Table 6, ND: No significant inhibition

With CN(Cc1cnc2nc(N)nc(N)c2n1)c1ccc(C(=O)N[C@@H](CCC(=O)O)C(=O)O)cc1 [NSC740, methotrexate] the MIC ([1]; Candida albicans) was 500 µg/mL (≈ 1100 µM), the IC50 [2, 8] was 0.048 µg/mL (≈ 0.106 µM) and the MIC [3, 9] was 500 µg/mL (≈ 1100 µM).
CCOc1ccc(NC(=O)c2cc3ccccc3cc2O)cc1 [NSC50690] gave a Kd [4, 10] of 463 µM and a ΔTm ([4]; Table 5) of 0.23 °C.
Nc1ccc(NC(=O)c2ccc(C(=O)Nc3ccc(N)cc3)cc2)cc1 [NSC55152] showed a Kd [4, 10] of 73.8 µM and a ΔTm ([4]; Table 5) of 5.89 °C.
Work on Nc1ccc(-c2nc3nc(N)nc(N)c3nc2-c2ccc(N)cc2)cc1 [NSC61642, 6,7-bis(4-aminophenyl) pteridine-2,4-diamine, reference compound] yielded an MIC [1, 11] of 250 µg/mL (≈ 726 µM) and a Kd [4, 10] of 2.03 µM.
O=C(Nc1ccc(Oc2ccc(NC(=O)Nc3ccc([N+](=O)[O-])cc3)cc2)cc1)Nc1ccc([N+](=O)[O-])cc1 [NSC80735] gave a Kd [4, 10] of 1.71 µM, a ΔTm ([4]; Table 5) of 18.16 °C and a Kd ([4]; text b322, read-out: KD / affinity) of 1.7 µM. For the same molecule, the “HCT-116 (IC-50)” value [2, 12] was 10.9 µg/mL.
C1=Cc2ccccc2Nc2ccccc21 [NSC123458] showed a Kd [4, 10] of 5.64 µM and a ΔTm ([4]; Table 5) of 14.17 °C.
In the case of COc1cc(NCc2ccccc2O)c2ncccc2c1 [NSC130801], the Kd [4, 10] is reported as 75 µM and the ΔTm ([4]; Table 5) is reported as 5.84 °C.
In the case of CC(C)=C(c1ccc(Cl)cc1)c1c(N)ncnc1N [NSC157522], the Kd [4, 10] is reported as 19.5 µM and the ΔTm ([4]; Table 5) is reported as 10.13 °C.
Work on O=C(Nc1ccc(C(=O)O)c(O)c1)c1ccccc1 [NSC159686] yielded a Kd [4, 10] of 12.7 µM and a ΔTm ([4]; Table 5) of 11.52 °C.
Nc1ccc(Cn2ccc3c4c(N)nc(N)nc4ccc32)cc1 [NSC309401, 7-[(4-aminophenyl)methyl]-7H-pyrrolo[3,2-f]quinazoline-1,3-diamine] showed an MIC90 ([1]; Candida albicans, read-out: MIC (MIC-90, minimum inhibitory concentration for 90% growth inhibition), Table 1, ARCA) of 125 µg/mL (≈ 411 µM), an MIC [1, 11] of 125 µg/mL (≈ 411 µM) and an MIC90 ([5]; Staphylococcus aureus, ATCC33591|MRSA, read-out: MIC (MIC-90, minimum inhibitory concentration for 90% growth inhibition)) of 31.2 µg/mL (≈ 103 µM). It also gave an MIC ([5]; Staphylococcus aureus, ATCC33591|MRSA, read-out: MRSA (MIC), minimum inhibitory concentration required for 90% clearance) of 31.2 µg/mL (≈ 103 µM), an MIC ([5]; Staphylococcus aureus, read-out: MRSA (MIC)) of 31.2 µg/mL (≈ 103 µM) and an IC50 ([2]; Table 5, unit from Table 6, ND: non determinable/no significant inhibition, read-out: HCT-116 (IC-50)) of 0.13 µg/mL (≈ 0.427 µM). It also gave an IC50 [2, 8] of 0.13 µg/mL (≈ 0.427 µM), an MIC90 ([3]; Enterococcus faecium, ATCC700221, read-out: MIC (MIC-90, minimum inhibitory concentration for 90% growth inhibition)) of 31.2 µg/mL (≈ 103 µM) and an MIC ([3]; Enterococcus faecium, ATCC700221, read-out: VREF (MIC)) of 31.2 µg/mL (≈ 103 µM). It also gave an MIC [3, 9] of 31.2 µg/mL (≈ 103 µM), an MIC (E. coli DH5α; read-out: DH5α (MIC)) of 7.81 µg/mL (≈ 25.7 µM) and an MIC (E. coli DH5α; read-out: DH5α (MIC), minimum inhibitory concentration required for 90% clearance) of 7.81 µg/mL (≈ 25.7 µM). It also gave an MIC90 (E. coli DH5α; read-out: MIC (MIC-90, minimum inhibitory concentration for 90% growth inhibition)) of 7.81 µg/mL (≈ 25.7 µM), an MIC ([6]; ATCCBAA1743, read-out: MDREC (MIC), minimum inhibitory concentration required for 90% clearance) of 125 µg/mL (≈ 411 µM) and an MIC90 ([6]; ATCCBAA1743, read-out: MIC (MIC-90, minimum inhibitory concentration for 90% growth inhibition)) of 125 µg/mL (≈ 411 µM). For the same molecule, the “activity against cancer cell lines (potency not revealed)” value [7] was “has activity”.
N/C(CC(=O)Nc1cc(C(F)(F)F)ccc1Cl)=N\O [NSC379536] showed a Kd [4, 10] of 28.9 µM and a ΔTm ([4]; Table 5) of 8.86 °C.
With CCc1nc(N)nc(N)c1-c1ccc(N(C)Cc2ccccc2)c([N+](=O)[O-])c1 [NSC382035, methylbezoprim, reference compound] the “ARCA (MIC)” value ([1]; Table 5, unit from Table 1, ND: non determinable/no significant inhibition) was 250 µg/mL, the “MRSA (MIC)” value [5, 12] was 31.25 µg/mL and the “MRSA (MIC), minimum inhibitory concentration required for 90% clearance” value [5, 13] was 31.25 µg/mL. The “HCT-116 (IC-50)” value [2, 12] was 0.182 µg/mL, the “HCT-116 (IC-50), inhibitory concentration for 50% growth inhibition” value [2, 13] was 0.182 µg/mL and the “VREF (MIC)” value [3, 12] was 31.25 µg/mL. The “VREF (MIC), minimum inhibitory concentration required for 90% clearance” value [3, 13] was 31.25 µg/mL.
In the case of C#CCC(Cc1cnc2nc(N)nc(N)c2n1)c1ccc(C(=O)N[C@@H](CCC(=O)O)C(=O)O)cc1 (stereo partly drawn) [NSC754230, pralatrexate, reference compound], the Kd [4, 10] is reported as 0.499 µM and the IC50 [2, 8] is reported as < 0.031 µg/mL.
